Experimental data reported in article PMC9920598, “Impact of Starch Binding Domain Fusion on Activities and Starch Product Structure of 4-α-Glucanotransferase” (Molecules, 2023).

Experiments:
[1] = tested on: T1, SBDGA-TuαGT; assay: glucose release (GOPOD), Michaelis-Menten fit; format: biochemical, Thermoproteus uzoniensis; details: disproportionation (maltotriose donor and acceptor); 70 °C, pH 7.0, 50 mM Hepes, 150 mM NaCl; 10 nM enzyme; read-out: SBDGA-TuaGT
T1 construct: gene malQ; E. coli; 69,562 Da; with Glucoamylase (Aspergillus niger), C-terminal CBM20 domain SBDGA
Source text: glucose release (GOPOD), Michaelis-Menten fit on SBDGA-TuαGT

[2] = tested on: T2, SBDSt1-TuαGT; assay: glucose release (GOPOD), Michaelis-Menten fit; format: biochemical, Thermoproteus uzoniensis; details: disproportionation (maltotriose donor and acceptor); 70 °C, pH 7.0, 50 mM Hepes, 150 mM NaCl; 10 nM enzyme; read-out: SBDSt1-TuaGT
T2 construct: gene malQ; E. coli; 68,272 Da; with 4-alpha-glucanotransferase DPE2 (Solanum tuberosum), first CBM20 domain SBDSt1
Source text: glucose release (GOPOD), Michaelis-Menten fit on SBDSt1-TuαGT

`OC[C@H]1O[C@H](O[C@H]2[C@H](O)[C@@H](O)[C@@H](O[C@H]3[C@H](O)[C@@H](O)C(O)O[C@@H]3CO)O[C@@H]2CO)[C@H](O)[C@@H](O)[C@@H]1O` (some centres unmarked) [maltotriose] showed a Km [1] of 1400 ± 100 nM and a Km [2] of 3.5 ± 0.2 µM.
